Experimental data: patent US12070505B2, “Targeted peptide-drug conjugates” (priority 2021, dated 2024)
Read-outs that look alike come from different tables or passages of the source.

Tests used:
[1] = tested on: uterine sarcoma cells (MES-SA/MX2)
Experimental: (§1) In Vitro Cytotoxicity Assay of Peptide-Drug Conjugates. […] In brief, CCRF-CEM cells were seeded at 50,000 cells in 0.1 mL per well in 98-well plates. In the case of other cell lines, the cells were seeded at 5,000 cells (0.1 mL per well in 96-well plates). […] Dox (5 μM) was used as a positive control, while water and cell culture medium were used as negative controls. The compounds were dissolved in water; water was used as a negative control to normalize the data. After the incubation period, MTS reagent (20 μL) was added to each well. The incubation was continued for 2 h. Cell viability was then determined by determination of the fluorescence intensity at 490 nm using a SpectraMax M2 microplate spectrophotometer. The percentage of cell viability was then calculated using the following equation: [(OD value of cells treated with the compound)−(OD value of culture medium)]/[(OD value of control cells)−(OD value of culture medium)]×100% (FIGS. 6-9).

[2] = tested on: CCRF-CEM cells; settings: 3 h incubation; cited from earlier work
[3] = tested on: gastric adenocarcinoma cells (AGS); assay: Cytotoxicity, MTS cell viability assay, AGS; settings: for reduction of cell survival: 72 h
Experimental: as §1

[4] = Cytotoxicity, MTS assay, normal kidney cells; settings: pig, LLC-PK1 kidney cells
Experimental: (§2) In Vitro Cytotoxicity Assay of Peptide-Drug Conjugates. The cytotoxicity of the compounds was determined by using human leukemia cell line (CCRF-CEM), human ovarian adenocarcinoma cells (SKOV-3) cells, kidney cell line (LLC-PK1), gastric adenocarcinoma cells (AGS), and heart/myocardium cells (H9C2) to evaluate the toxicity of the generated peptides according to a previously reported procedure (Rahman, A.; et al. Proc. Am. Assoc. Cancer Res. 26:2295-2299, 1985, which is incorporated herein by reference). In brief, CCRF-CEM cells were seeded at 50,000 cells in 0.1 mL per well in 98-well plates. In the case of other cell lines, the cells were seeded at 5,000 cells (0.1 mL per well in 96-well plates). The cells were seeded in medium (RPMI-1640 containing FBS (10%)), 24 h prior to the experiment. The compounds at different concentrations (10-50 μM) were added to each well in triplicate and incubated for 24 and 72 h at 37° C. in a humidified atmosphere of 5% CO2. Dox (5 μM) was used as a positive control, while water and cell culture medium were used as negative controls. The compounds were dissolved in water; water was used as a negative control to normalize the data. After the incubation period, MTS reagent (20 μL) was added to each well. The incubation was continued for 2 h. Cell viability was then determined by determination of the fluorescence intensity at 490 nm using a SpectraMax M2 microplate spectrophotometer.

[5] = tested on: LLC-PK1 kidney cells; assay: Cytotoxicity, MTS assay, normal kidney cells; settings: for Cell Viability (%) after 24 h / Cell Viability (%) after 72 h: normal kidney LLC-PK1
Experimental: as §2

[6] = tested on: CCRF-CEM cells; assay: Cytotoxicity, MTS cell viability assay, CCRF-CEM
Experimental: as §1

[7] = tested on: SK-OV-3 cells; assay: Cytotoxicity, MTS cell viability assay, SK-OV-3 (Example 1)
Experimental: as §1

[8] = Cytotoxicity, MTS assay, normal heart muscle cells (Example 1); settings: rat, H9C2 heart/myocardium cells
Experimental: as §2

[9] = tested on: H9C2 cells; assay: as above
Experimental: as §2

SMILES: N=C(N)NCCC[C@@H]1NC(=O)[C@H](CCCCNC(=O)[C@H](Cc2c[nH]c3ccccc23)NC(=O)[C@H](Cc2c[nH]c3ccccc23)NC(=O)[C@H](Cc2c[nH]c3ccccc23)NC(=O)[C@H](Cc2c[nH]c3ccccc23)NC(=O)[C@H](Cc2c[nH]c3ccccc23)NC(=O)[C@H](Cc2c[nH]c3ccccc23)NC(=O)[C@H](Cc2c[nH]c3ccccc23)NC(=O)CCN)NC(=O)[C@H](CCCNC(=N)N)NC(=O)[C@H](CCCNC(=N)N)NC(=O)[C@H](CCCNC(=N)N)NC(=O)[C@H](CCCNC(=N)N)NC1=O [[R5K]W7A]
- Cell Viability (%) after 72 h ([1]; 10 μM): 110 ± 4%
- Cell Viability (%) after 72 h ([1]; 25 μM): 19 ± 2%
- reduction of cell viability ([1]; 25 μM, 72 h): ~80%
- fold improved uptake of F′-GpYEEI [2]: approximately 48 fold
- fold improved uptake of emtricitabine (F′-FTC) [2]: ~27 fold
- fold improved uptake of stavudine (F′-d4T) [2]: ~36 fold
- Cell Viability (%) after 24 h ([3]; 5 μM): 103 ± 3%
- Cell Viability (%) after 72 h ([3]; 5 μM): 108 ± 1%
- Cell Viability (%) after 24 h ([3]; 10 μM): 104 ± 1%
- Cell Viability (%) after 72 h ([3]; 10 μM): 94 ± 2%
- Cell Viability (%) after 24 h ([3]; 25 μM): 105 ± 2%
- Cell Viability (%) after 72 h ([3]; 25 μM): 76 ± 1%
- reduction of cell survival ([3]; 25 μM): 24%
- Cell Viability (%) after 24 h ([3]; 50 μM): 79 ± 1%
- Cell Viability (%) after 72 h ([3]; 50 μM): 21 ± 1%
- reduction of cell survival ([3]; 50 μM): 87%
- cytotoxicity ([3]; 5 and 10 μM, 24 and 72 h): did not generate any significant cytotoxicity
- viability at 24 h, 5 µM [4]: 94 ± 1%
- viability at 24 h, 10 µM [4]: 86 ± 1%
- viability at 24 h, 25 µM [4]: 82 ± 1%
- viability at 24 h, 50 µM [4]: 71 ± 1%
- viability at 72 h, 5 µM [4]: 98 ± 3%
- viability at 72 h, 10 µM [4]: 100 ± 1%
- viability at 72 h, 25 µM [4]: 97 ± 1%
- viability at 72 h, 50 µM [4]: 97 ± 3%
- cytotoxicity ([5]; LLC-PK1, 5-50 μM, 72 h): did not generate any significant cytotoxicity
- Cell Viability (%) after 24 h ([5]; 5 μM): 94 ± 1%
- Cell Viability (%) after 72 h ([5]; 5 μM): 98 ± 3%
- Cell Viability (%) after 24 h ([5]; 10 μM): 86 ± 1%
- Cell Viability (%) after 72 h ([5]; 10 μM): 100 ± 1%
- Cell Viability (%) after 24 h ([6]; 5 μM): 90 ± 1%
- Cell Viability (%) after 72 h ([6]; 5 μM): 68 ± 4%
- Cell Viability (%) after 24 h ([6]; 10 μM): 68 ± 4%
- Cell Viability (%) after 72 h ([6]; 10 μM): 73 ± 6%
- Cell Viability (%) after 24 h ([6]; 25 μM): 32 ± 0%
- Cell Viability (%) after 72 h ([6]; 25 μM): 24 ± 9%
- reduction of cell viability ([6]; 25 μM, 24 h): 68%
- cytotoxicity of peptide alone ([6]; concentrations other than 25 μM, even after 72 h): 10-22%
- Cell Viability (%) after 24 h ([7]; 5 μM): 79 ± 1%
- Cell Viability (%) after 72 h ([7]; 5 μM): 102 ± 8%
- Cell Viability (%) after 24 h ([7]; 10 μM): 76 ± 0%
- Cell Viability (%) after 72 h ([7]; 10 μM): 101 ± 1%
- Cell Viability (%) after 24 h ([7]; 25 μM): 70 ± 6%
- Cell Viability (%) after 72 h ([7]; 25 μM): 81 ± 3%
- reduction of cell viability / cytotoxicity ([7]; 25 μM, 72 h): 19%
- cytotoxicity of peptide alone ([7]; 5, 10, and 25 μM, 24 h): 21-30%
- viability at 72 h, 10 µM [8]: 105 ± 3%
- Cell Viability (%) after 24 h ([9]; normal heart H9C2, 10 μM): 101 ± 0%

SMILES: COc1cccc2c1C(=O)c1c(O)c3c(c(O)c1C2=O)C[C@@](O)(C(=O)CO)C[C@@H]3O[C@H]1C[C@H](NC(=N)CCCSSC[C@H](NC(C)=O)C(=O)N[C@@H](Cc2c[nH]c3ccccc23)C(=O)N[C@@H](Cc2c[nH]c3ccccc23)C(=O)N[C@@H](Cc2c[nH]c3ccccc23)C(=O)N[C@@H](Cc2c[nH]c3ccccc23)C(=O)N[C@@H](Cc2c[nH]c3ccccc23)C(=O)N[C@@H](Cc2c[nH]c3ccccc23)C(=O)N[C@@H](Cc2c[nH]c3ccccc23)C(=O)NCCCC[C@@H]2NC(=O)[C@H](CCCNC(=N)N)NC(=O)[C@H](CCCNC(=N)N)NC(=O)[C@H](CCCNC(=N)N)NC(=O)[C@H](CCCNC(=N)N)NC(=O)[C@H](CCCNC(=N)N)NC2=O)[C@H](O)[C@H](C)O1 [[R5K]W7C-S-S-Dox]
- viability at 24 h, 5 µM [8]: 98 ± 1%
- viability at 24 h, 10 µM [8]: 91 ± 1%
- viability at 24 h, 25 µM [8]: 92 ± 1%
- viability at 72 h, 5 µM [8]: 106 ± 1%
- viability at 72 h, 10 µM [8]: 117 ± 1%
- viability at 72 h, 25 µM [8]: 105 ± 2%
- viability at 96 h, 5 µM [8]: 104 ± 1%
- viability at 96 h, 10 µM [8]: 113 ± 3%
- viability at 96 h, 25 µM [8]: 108 ± 1%
- cytotoxicity ([9]; H9C2, 5-10 and 25 μM, any incubation time): did not show any cytotoxicity
